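At the GI50, growth is halved. TGI denotes the concentration required for complete inhibition of growth.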
Assays:
Experiment in all cases: NCI tumour cell line growth inhibition, 384-well format
SNB-19 CNS = tested on: SNB-19 CNS
SN12C renal = tested on: SN12C renal
ACHN renal = tested on: ACHN renal
EKVX NSCLC = tested on: EKVX NSCLC
NCI-H226 lung = tested on: NCI-H226 lung
CAKI-1 renal = tested on: CAKI-1 renal
KM12 colon = tested on: KM12 colon
UACC-257 melanoma = tested on: UACC-257 melanoma
PC-3 prostate = tested on: PC-3 prostate
RXF 393 renal = tested on: RXF 393 renal
UO-31 renal = tested on: UO-31 renal
T-47D breast = tested on: T-47D breast
HOP-62 NSCLC = tested on: HOP-62 NSCLC
OVCAR-5 ovarian = tested on: OVCAR-5 ovarian
SK-OV-3 ovarian = tested on: SK-OV-3 ovarian
SF-268 CNS = tested on: SF-268 CNS
OVCAR-4 ovarian = tested on: OVCAR-4 ovarian
HOP-92 NSCLC = tested on: HOP-92 NSCLC
A549 NSCLC = tested on: A549 NSCLC
TK-10 renal = tested on: TK-10 renal
NCI-H322M lung = tested on: NCI-H322M lung
NCI-H23 lung = tested on: NCI-H23 lung
MALME-3M melanoma = tested on: MALME-3M melanoma
IGROV1 ovarian = tested on: IGROV1 ovarian
MCF7 breast = tested on: MCF7 breast
A498 renal = tested on: A498 renal
NCI/ADR-RES ovarian = tested on: NCI/ADR-RES ovarian
HCT-15 colon = tested on: HCT-15 colon
LOX IMVI melanoma = tested on: LOX IMVI melanoma

`CC(=O)O[C@@]12CO[C@@H]1C[C@H](O)[C@@]1(C)C(=O)[C@H](O)C3=C(C)[C@@H](OC(=O)[C@H](O)[C@@H](NC(=O)OC(C)(C)C)c4ccccc4)C[C@@](O)([C@@H](OC(=O)c4ccccc4)[C@H]21)C3(C)C` was tested, and the TGI (SNB-19 CNS) was > 70.7 µM, the TGI (SN12C renal) was 21.2 µM and the GI50 (ACHN renal) was 0.0201 µM. The TGI (ACHN renal) was 20.9 µM, the TGI (EKVX NSCLC) was 35.8 µM and the TGI (NCI-H226 lung) was 22.5 µM. For the same compound, the TGI (CAKI-1 renal) was 18 µM, the TGI (KM12 colon) was 24 µM and the TGI (UACC-257 melanoma) was 31.6 µM. The TGI (PC-3 prostate) was 37.5 µM, the TGI (RXF 393 renal) was < 0.0108 µM and the GI50 (UO-31 renal) was 0.0791 µM. For the same compound, the TGI (UO-31 renal) was 51.8 µM, the TGI (T-47D breast) was > 100 µM and the TGI (HOP-62 NSCLC) was 17.3 µM. The TGI (OVCAR-5 ovarian) was 36.3 µM, the TGI (SK-OV-3 ovarian) was > 100 µM and the TGI (SF-268 CNS) was 36.1 µM. The TGI (OVCAR-4 ovarian) was 39.9 µM, the TGI (HOP-92 NSCLC) was 33.2 µM and the TGI (A549 NSCLC) was 29.1 µM. The GI50 (TK-10 renal) was < 0.0143 µM, the TGI (TK-10 renal) was > 47.4 µM and the TGI (NCI-H322M lung) was 31.3 µM. It also gave a TGI (NCI-H23 lung) of 27.3 µM, a GI50 (MALME-3M melanoma) of 12 µM and a TGI (MALME-3M melanoma) of 24.8 µM. The TGI (IGROV1 ovarian) was 27.8 µM, the TGI (MCF7 breast) was 24.7 µM and the TGI (A498 renal) was 18.7 µM. The GI50 (NCI/ADR-RES ovarian) was 0.782 µM, the TGI (NCI/ADR-RES ovarian) was 2.26 µM and the GI50 (HCT-15 colon) was < 0.0151 µM. It also gave a TGI (HCT-15 colon) of 1.79 µM and a TGI (LOX IMVI melanoma) of 17.4 µM.

— PubChem BioAssay (NCI)
